Laboratory results from patent publication US12162893B2 (Erasca, Inc., priority 2020, dated 2024).

Biological target: T1, mutant G12C K-RAS (Homo sapiens, UniProt P01116, G12C)
T1 construct: made in house; host or cells: E. coli BL21
Test: covalent adduct formation (CAF) with mutant G12C K-RAS
Assay type: binding
Design: CAF: unit not given here
Settings: for % CAF (60 min) / CAF: after 60 minutes at 10 micromolar; for CAF: Table 3, Pyridone Core-Morpholine Unsubstituted
Procedure: Embodiments disclosed herein are further illustrated by the following examples in Tables 1-4 and the Examples hereinbelow. The Tables indicate the compound number, structure, the observed mass spectral molecular weight peak, and covalent adduct formation (CAF) with a mutant G12C K-RAS after 60 minutes at a concentration of 10 micromolar.

[1] = Table 1, Pyrimidone Core-Morpholine Unsubstituted
[2] = Table 2, Pyrimidone Core-Morpholine Substituted

| % CAF (60 min) [1] [%] | % CAF (60 min) [2] [%] | SMILES | other results |
| --- | --- | --- | --- |
|  |  | C=CC(=O)N1C[C@H](C)N(c2nc(=O)n3c4c(c(-c5ccc(F)cc5F)c(Cl)cc24)OC[C@@H]3COC2CCN(C)C2)C[C@H]1C (stereo in doubt) [Example 336, (3S)-7-((2S,5R)-4-acryloyl-2,5-dimethylpiperazin-1-yl)-9-chloro-10-(2,4-difluorophenyl)-3-((((S)-1-methylpyrrolidin-3-yl)oxy)methyl)-2H-[1,4]oxazino[2,3,4-ij]quinazolin-5(3H)-one] | % CAF @ 10 μM,1 h (Table 6, 10 μM, 1 h): 79% |
| 87.6 |  | C=CC(=O)N1CCN(c2nc(=O)n3c4c(c(-c5c(O)cccc5F)c(Cl)cc24)OCC3)CC1 [Example 5, (S)-7-(4-acryloylpiperazin-1-yl)-9-chloro-10-(2-fluoro-6-hydroxyphenyl)-2H-[1,4]oxazino[2,3,4-ij]quinazolin-5(3H)-one] |  |
| 17.6 |  | C=CC(=O)N1CCN(c2nc(=O)n3c4c(c(N(C)c5ccccc5C)c(Cl)cc24)OCC3)CC1 [Example 6] |  |
| 79.6 |  | C=CC(=O)N1CCN(c2nc(=O)n3c4c(c(-c5c(C)ccc6[nH]ncc56)c(Cl)cc24)OCC3)CC1 [Example 7, (R)-7-(4-acryloylpiperazin-1-yl)-9-chloro-10-(5-methyl-1H-indazol-4-yl)-2H-[1,4]oxazino[2,3,4-ij]quinazolin-5(3H)-one] |  |
| 0 |  | C=CC(=O)N1CCN(c2nc(=O)n3c4c(c(-c5c(C)ccc6[nH]ncc56)c(Cl)cc24)OCC3)CC1 [Example 8, (S)-7-(4-acryloylpiperazin-1-yl)-9-chloro-10-(5-methyl-1H-indazol-4-yl)-2H-[1,4]oxazino[2,3,4-ij]quinazolin-5(3H)-one] |  |
| 72.6 |  | C=CC(=O)N1CCN(c2nc(=O)n3c4c(c(-c5c(C)ccc6[nH]nc(C)c56)c(Cl)cc24)OCC3)CC1 [Example 9, 7-(4-acryloylpiperazin-1-yl)-9-chloro-10-(3,5-dimethyl-1H-indazol-4-yl)-2H-[1,4]oxazino[2,3,4-ij]quinazolin-5(3H)-one] |  |
| 68 |  | C=CC(=O)N1C[C@H](C)N(c2nc(=O)n3c4c(c(-c5ccc(F)cc5F)c(Cl)cc24)OCC3)C[C@H]1C [Example 11, 7-((2S,5R)-4-acryloyl-2,5-dimethylpiperazin-1-yl)-9-chloro-10-(2,4-difluorophenyl)-2H-[1,4]oxazino[2,3,4-ij]quinazolin-5(3H)-one] |  |
| 0 |  | C=CC(=O)N1C[C@H](C)N(c2nc(=O)n3c4c(c(-c5ccc(F)c(Cl)c5)ccc24)OCC3)C[C@H]1C [Example 12, 7-((2S,5R)-4-acryloyl-2,5-dimethylpiperazin-1-yl)-10-(3-chloro-4-fluorophenyl)-2H-[1,4]oxazino[2,3,4-ij]quinazolin-5(3H)-one] |  |
| 3 |  | C=CC(=O)N1C[C@H](C)N(c2nc(=O)n3c4c(c(-c5cccc6ccccc56)ccc24)OCC3)C[C@H]1C [Example 13, 7-((2S,5R)-4-acryloyl-2,5-dimethylpiperazin-1-yl)-10-(naphthalen-1-yl)-2H-[1,4]oxazino[2,3,4-ij]quinazolin-5(3H)-one] |  |
| 46 |  | C#CC(=O)N1C[C@H](C)N(c2nc(=O)n3c4c(c(-c5ccc(F)cc5F)c(Cl)cc24)OCC3)C[C@H]1C [Example 14] |  |
| 0 |  | C=CC(=O)N1C[C@H](C)N(c2nc(=O)n3c4c(c(-c5cccc6cccc(Cl)c56)ccc24)OCC3)C[C@H]1C [Example 15, 7-((2S,5R)-4-acryloyl-2,5-dimethylpiperazin-1-yl)-10-(8-chloronaphthalen-1-yl)-2H-[1,4]oxazino[2,3,4-ij]quinazolin-5(3H)-one] |  |
| 0 |  | C=CC(=O)N1C[C@H](C)N(c2nc(=O)n3c4c(c(-c5cc(F)cc(Cl)c5)ccc24)OCC3)C[C@H]1C [Example 16, 7-((2S,5R)-4-acryloyl-2,5-dimethylpiperazin-1-yl)-10-(3-chloro-5-fluorophenyl)-2H-[1,4]oxazino[2,3,4-ij]quinazolin-5(3H)-one] |  |
| 2 |  | C=CC(=O)N1C[C@H](C)N(c2nc(=O)n3c4c(c(-c5ccc(Cl)cc5F)ccc24)OCC3)C[C@H]1C [Example 17, 7-((2S,5R)-4-acryloyl-2,5-dimethylpiperazin-1-yl)-10-(4-chloro-2-fluorophenyl)-2H-[1,4]oxazino[2,3,4-ij]quinazolin-5(3H)-one] |  |
|  | 0 | C=CC(=O)N1CCN(c2nc(=O)n3c4c(c(-c5c(O)cccc5F)c(Cl)cc24)OC[C@H]3CO)CC1 [Example 20, (3R,10R)-7-(4-acryloylpiperazin-1-yl)-9-chloro-10-(2-fluoro-6-hydroxyphenyl)-3-(hydroxymethyl)-2H-[1,4]oxazino[2,3,4-ij]quinazolin-5(3H)-one] |  |
|  | 72.8 | C=CC(=O)N1CCN(c2nc(=O)n3c4c(c(-c5c(O)cccc5F)c(Cl)cc24)OC[C@@H]3CO)CC1 [Example 21, (3S)-7-(4-acryloylpiperazin-1-yl)-9-chloro-10-(2-fluoro-6-hydroxyphenyl)-3-(hydroxymethyl)-2H-[1,4]oxazino[2,3,4-ij]quinazolin-5(3H)-one] |  |
|  | 87.6 | C=CC(=O)N1CCN(c2nc(=O)n3c4c(c(-c5c(O)cccc5F)c(Cl)cc24)OC[C@H]3CO)[C@@H](C)C1 [Example 22, (3R,10S)-7-((S)-4-acryloyl-2-methylpiperazin-1-yl)-9-chloro-10-(2-fluoro-6-hydroxyphenyl)-3-(hydroxymethyl)-2H-[1,4]oxazino[2,3,4-ij]quinazolin-5(3H)-one] |  |
|  | 0 | C=CC(=O)N1CCN(c2nc(=O)n3c4c(c(-c5c(O)cccc5F)c(Cl)cc24)OC[C@H]3CO)[C@@H](C)C1 [Example 23, (3R,10R)-7-((S)-4-acryloyl-2-methylpiperazin-1-yl)-9-chloro-10-(2-fluoro-6-hydroxyphenyl)-3-(hydroxymethyl)-2H-[1,4]oxazino[2,3,4-ij]quinazolin-5(3H)-one] |  |
|  | 81.9 | C=CC(=O)N1C[C@H](C)N(c2nc(=O)n3c4c(c(-c5c(O)cccc5F)c(Cl)cc24)OC[C@@H]3CO)C[C@H]1C [Example 26, (3S)-7-((2S,5R)-4-acryloyl-2,5-dimethylpiperazin-1-yl)-9-chloro-10-(2-fluoro-6-hydroxyphenyl)-3-(hydroxymethyl)-2H-[1,4]oxazino[2,3,4-ij]quinazolin-5(3H)-one] |  |
|  | 85.5 | C=CC(=O)N1C[C@H](C)N(c2nc(=O)n3c4c(c(-c5c(O)cccc5F)c(Cl)cc24)OC[C@@H]3CO)C[C@H]1C [Example 27, (3S,10S)-7-((2S,5R)-4-acryloyl-2,5-dimethylpiperazin-1-yl)-9-chloro-10-(2-fluoro-6-hydroxyphenyl)-3-(hydroxymethyl)-2H-[1,4]oxazino[2,3,4-ij]quinazolin-5(3H)-one] |  |
|  | 1.3 | C=CC(=O)N1C[C@H](C)N(c2nc(=O)n3c4c(c(-c5c(O)cccc5F)c(Cl)cc24)OC[C@@H]3CO)C[C@H]1C [Example 28, (3S,10R)-7-((2S,5R)-4-acryloyl-2,5-dimethylpiperazin-1-yl)-9-chloro-10-(2-fluoro-6-hydroxyphenyl)-3-(hydroxymethyl)-2H-[1,4]oxazino[2,3,4-ij]quinazolin-5(3H)-one] |  |
|  | 68.1 | C=CC(=O)N1C[C@H](C)N(c2nc(=O)n3c4c(c(-c5c(O)cccc5F)c(Cl)cc24)OC[C@H]3CO)C[C@H]1C [Example 30] |  |
|  | 0 | C=CC(=O)N1C[C@H](C)N(c2nc(=O)n3c4c(c(-c5c(O)cccc5F)c(Cl)cc24)OC[C@H]3CO)C[C@H]1C [Example 32, (3R,10R)-7-((2S,5R)-4-acryloyl-2,5-dimethylpiperazin-1-yl)-9-chloro-10-(2-fluoro-6-hydroxyphenyl)-3-(hydroxymethyl)-2H-[1,4]oxazino[2,3,4-ij]quinazolin-5(3H)-one] |  |
|  | 87.3 | C=CC(=O)N1C[C@H](C)N(c2nc(=O)n3c4c(c(-c5c(O)cccc5F)c(Cl)cc24)OC[C@H]3CO)C[C@H]1C [Example 33, (3R,10S)-7-((2S,5R)-4-acryloyl-2,5-dimethylpiperazin-1-yl)-9-chloro-1-(2-fluoro-6-hydroxyphenyl)-3-(hydroxymethyl)-2H-[1,4]oxazino[2,3,4-ij]quinazolin-5(3H)-one] |  |
|  | 77.4 | C=CC(=O)N1C[C@H](C)N(c2nc(=O)n3c4c(c(-c5ccc(F)cc5)c(Cl)cc24)OCC3CN(C)C)C[C@H]1C (stereo partly drawn) [Example 34, 7-((2S,5R)-4-acryloyl-2,5-dimethylpiperazin-1-yl)-9-chloro-3-((dimethylamino)methyl)-10-(4-fluorophenyl)-2H-[1,4]oxazino[2,3,4-ij]quinazolin-5(3H)-one] |  |
|  | 84.6 | C=CC(=O)N1C[C@H](C)N(c2nc(=O)n3c4c(c(-c5ccc(F)cc5F)c(Cl)cc24)OCC3CN(C)C)C[C@H]1C (stereo partly drawn) [Example 35, 7-((2S,5R)-4-acryloyl-2,5-dimethylpiperazin-1-yl)-9-chloro-10-(2,4-difluorophenyl)-3-((dimethylamino)methyl)-2H-[1,4]oxazino[2,3,4-ij]quinazolin-5(3H)-one] |  |
|  |  | C=CC(=O)N1CCN(c2c(C#N)c(=O)n3c4c(c(-c5c(O)cccc5F)c(Cl)cc24)OCC3)[C@@H](C)C1 [Example 38, 7-((S)-4-acryloyl-2-methylpiperazin-1-yl)-9-chloro-10-(2-fluoro-6-hydroxyphenyl)-5-oxo-3,5-dihydro-2H-[1,4]oxazino[2,3,4-ij]quinoline-6-carbonitrile] | CAF: 49.1 |
|  |  | C=CC(=O)N1CCN(c2c(C#N)c(=O)n3c4c(c(-c5c(O)cccc5F)c(Cl)cc24)OCC3)[C@@H](C)C1 [Example 39, (S)-7-((S)-4-acryloyl-2-methylpiperazin-1-yl)-9-chloro-10-(2-fluoro-6-hydroxyphenyl)-5-oxo-3,5-dihydro-2H-[1,4]oxazino[2,3,4-ij]quinoline-6-carbonitrile] | CAF: 0 |
